Reference: patent US20250092058A1 (priority 2018, published 2025)

Columns and labels:
[1] = system: CRC PDX27454 tumors; conditions: mouse, in vivo
Experimental: Colorectal cancer (CRC) patient-derived xenograft (PDX) models were used to evaluate their in vivo antitumor activity. […] Treatments were administered weekly for four weeks on days 0, 7, 14 and 21 and tumor volumes and individual body weights were monitored.
Human xenograft tumors used. In this invention disclose, human SW620 (colorectal), HT29 (colorectal) and HT-3 (retinoblastoma) cancer cell line-established xenograft tumors were used. Human tumor cell line-derived xenograft tumors are initially established by subcutaneously injecting 2-5×10^6 cultured cancer cells in a volume of 100-150 p L medium into the flank area of severe combined immunodeficiency (SCID) mice. The derived tumors are then passed a couple of generations in mice by transplanting 30-50 mg non-necrotic tumor mass via a trocar for experiments or maintenance. […] PDX tumors were originally established on severe Combined Immunodeficiency (SCID) mice from pancreatic and colorectal cancer patient tumor tissues obtained from metastatic sites of the disease in the clinic.
Specifically, PDX tumors were originally established on severe Combined Immunodeficiency (SCID) mice from pancreatic and colorectal cancer patient tumor tissues obtained from metastatic sites of the disease in the clinic. […] The vehicle is the same think aqueous suspension without drug. Experimental SCID mice were subcutaneously implanted with 30-40 mg individual PDX tumors (isolated from maintenance mice) at the flank area for PDX27454 of SCID mice. Treatment with vehicle or a drug of 7Q-series (2) was initiated 7-14 days after the transplanted tumors reached 100-200 mm^3 (designated day 0). The animal model of PDX tumors was orally treated weekly for 4 times (one cycle/course, as shown with black arrows) or only one time drug administration.

[2] = system: HepG2; assay type: cell-based, human
[3] = system: A549; assay type: cell-based, human
[4] = system: HeLa; assay type: cell-based, human
[5] = system: HCT116; assay type: cell-based, human

| Compound | antitumor activity, 7Q-series (2) [1] | effect of oral instead of i.p. administration on antitumor efficacy [1] | IC50 [2] [nM] | IC50 [3] [nM] | IC50 [4] [nM] | IC50 [5] [nM] | toxicity on i.p. versus oral administration [1] | loss of antitumor efficacy on oral administration [1] [%] |
| --- | --- | --- | --- | --- | --- | --- | --- | --- |
| CC[C@@]1(O)C(=O)OCc2c1cc1n(c2=O)Cc2c-1nc1cc3c(cc1c2-c1ccc(C)c(F)c1)OCO3 [Compound 7Q28] | much higher antitumor activity than the other compounds in this 7Q-series (2) | decreases 7Q28 antitumor efficacy |  |  |  |  |  |  |
| CC[C@@]1(O)C(=O)OCc2c1cc1n(c2=O)Cc2c-1nc1cc3c(cc1c2-c1ccc(OC)c(F)c1)OCO3 [Compound 7Q31] | much higher antitumor activity than the other compounds in this 7Q-series (2) | decreases 7Q28 antitumor efficacy |  |  |  |  |  |  |
| CC[C@@]1(O)C(=O)OCc2c1cc1n(c2=O)Cc2c-1nc1cc3c(cc1c2-c1cccc(C(F)(F)F)c1)OCO3 [Compound 7k] |  |  | 35 ± 6.6 | 82.9 ± 5.6 | 20.2 ± 3 | 73.6 ± 7.1 |  |  |
| CC[C@@]1(O)C(=O)OCc2c1cc1n(c2=O)Cc2c-1nc1cc3c(cc1c2-c1ccc(F)c(F)c1)OCO3 [Compound 7n] |  |  | 49.9 ± 3.5 | 9 | 39.7 ± 2.3 | 48.8 ± 3.2 |  |  |
| CC[C@@]1(O)C(=O)OCc2c1cc1n(c2=O)Cc2c-1nc1cc3c(cc1c2-c1cccc(F)c1)OCO3 [Compound 7a] |  |  | 155 ± 35.1 | 40 ± 0.3 | 34.7 ± 6.5 | 150 ± 2.5 |  |  |
| CC[C@@]1(O)C(=O)OCc2c1cc1n(c2=O)Cc2c-1nc1cc3c(cc1c2-c1ccc(F)c(C)c1)OCO3 [Compound 7e] |  |  | 36.7 ± 2.6 | 29.4 ± 4.1 | 36.6 ± 4.5 | 25.5 ± 3.2 |  |  |
| CCOc1ccc(-c2c3c(nc4cc5c(cc24)OCO5)-c2cc4c(c(=O)n2C3)COC(=O)[C@]4(O)CC)cc1F [Compound 7j] |  |  | 206 ± 38.2 | 352 ± 10.3 | 42.2 ± 3.6 | 399 ± 19.8 |  |  |
| CC[C@@]1(O)C(=O)OCc2c1cc1n(c2=O)Cc2c-1nc1cc3c(cc1c2-c1ccc(F)c(OC)c1)OCO3 [Compound 7Q32] | much higher antitumor activity than the other compounds in this 7Q-series (2) |  |  |  |  |  | increases 7Q32 toxicity to animals in comparison with oral administration |  |
| CC[C@@]1(O)C(=O)OCc2c1cc1n(c2=O)Cc2c-1nc1cc3c(cc1c2-c1ccc(OC)c(F)c1)OCO3 [Compound 7g] |  |  | 172 ± 5.3 | 70.2 ± 9.6 | 24.3 ± 4.4 | 43.2 ± 15.8 |  |  |
| CC[C@@]1(O)C(=O)OCc2c1cc1n(c2=O)Cc2c-1nc1cc3c(cc1c2-c1cccc(OC(F)(F)F)c1)OCO3 [Compound 7Q36] | much higher antitumor activity than the other compounds in this 7Q-series (2) |  |  |  |  |  |  | > 80 |
| CC[C@@]1(O)C(=O)OCc2c1cc1n(c2=O)Cc2c-1nc1cc3c(cc1c2-c1cccc(C(F)(F)F)c1)OCO3 [Compound 7Q35] | much higher antitumor activity than the other compounds in this 7Q-series (2) | decreases 7Q35 antitumor efficacy |  |  |  |  |  |  |
| CC[C@@]1(O)C(=O)OCc2c1cc1n(c2=O)Cc2c-1nc1cc3c(cc1c2-c1cc(F)cc(OC)c1)OCO3 [Compound 7i] |  |  | 48.5 ± 2.3 | 15.5 ± 2.2 | 124 ± 12.1 | 66.9 ± 6.5 |  |  |
| CC[C@@]1(O)C(=O)OCc2c1cc1n(c2=O)Cc2c-1nc1cc3c(cc1c2-c1cc(C)cc(F)c1)OCO3 [Compound 7f] |  |  | 56 ± 0.3 | 30.6 ± 3.8 | 56.5 ± 2.8 | 41.4 ± 5.9 |  |  |
| CC[C@@]1(O)C(=O)OCc2c1cc1n(c2=O)Cc2c-1nc1cc3c(cc1c2-c1ccc(C)c(F)c1)OCO3 [Compound 7d] |  |  | 36.9 ± 1.2 | 48.2 ± 7.9 | 22.1 ± 7.3 | 50.3 ± 14.6 |  |  |
| CC[C@@]1(O)C(=O)OCc2c1cc1n(c2=O)Cc2c-1nc1cc3c(cc1c2-c1ccc(OC(F)(F)F)cc1)OCO3 [Compound 7m] |  |  | 229 ± 5.8 | 87.3 ± 14.4 | 398 ± 2.6 | 196 ± 19.1 |  |  |
